In patent US8637530B2, “8-(3-amino-piperidin-1-yl)-xanthines, their preparation, and their use as pharmaceuticals” (Boehringer Ingelheim International GmbH, priority 2005, dated 2014):

Assays:
[1] = Absorption characteristics (water uptake / hygroscopic behaviour as a function of relative humidity); format: physicochemical; conditions: for change into a hydrate phase: with rising relative humidity (free base: above 50% r.h.); for hygroscopic characteristics / behaviour: absorption characteristics, FIG. 7 / FIG. 10
[2] = Humidity-dependent X-ray powder images (phase change); format: physicochemical
Method: The X-ray powder diagrams, with one exception, were recorded using an STOE Stadi P X-ray powder diffractometer. This diffractometer operates with CuKα1 radiation (gamma=1.5406 Angstroms) and a location-sensitive detector. The X-ray generator was operated at 40 mA and 40 kV.
The X-ray powder diagram of the monohydrate of the free base was recorded with a Bruker D8 Advance X-ray powder diffractometer on which a special air humidity cell made by MRI had been placed. The diagram was recorded at about 72% r.h. The Bruker D8 Advance operates with CuKα radiation (gamma=1.5418 Angstroms) and also a location-sensitive detector. The X-ray generator was operated at 30 mA and 40 kV.

Row | SMILES | water taken up ([1]; above 50% r.h., FIG. 4) | relative humidity up to which the anhydrous form is stable ([1]; anhydrous form, FIG. 4) | reversibility of the conversion into the monohydrate ([1]; relative humidity brought back to 50% or less) | change into a hydrate phase [1] | relative humidity at which water is absorbed ([1]; FIG. 7) [% r.h.] | hygroscopic characteristics / behaviour [1] | phase change ([2]; above 80% r.h.) | water uptake over relative humidity ([1]; whole range of relative humidities, FIG. 10) | phase change ([2]; humidity range from 10-90 r.h.)
1 | CC#CCn1c(N2CCC[C@@H](N)C2)nc2c1c(=O)n(Cc1ncccc1C#N)c(=O)n2C [Example 2, 1-[(3-cyano-pyridin-2-yl)methyl]-3-methyl-7-(2-butyn-1-yl)-8-(3-(R)-amino-piperidin-1-yl)-xanthine] | about 4% | up to 50% | totally reversible | changes into a monohydrate | – | – | – | – | –
2 | CC#CCn1c(N2CCC[C@@H](N)C2)nc2c1c(=O)n(Cc1ncccc1C#N)c(=O)n2C.Cl [Example 3, 1-[(3-cyano-pyridin-2-yl)methyl]-3-methyl-7-(2-butyn-1-yl)-8-[(R)-3-amino-piperidin-1-yl]-xanthine monohydrochloride] | – | – | – | no reversible change into a hydrate phase | > 80 | less marked hygroscopic characteristics | no phase change | – | –
3 | CC#CCn1c(N2CCC[C@@H](N)C2)nc2c1c(=O)n(Cc1ncccc1C#N)c(=O)n2C.Cl.Cl [Example 4, 1-[(3-cyano-pyridin-2-yl)methyl]-3-methyl-7-(2-butyn-1-yl)-8-[(R)-3-amino-piperidin-1-yl]-xanthine-dihydrochloride] | – | – | – | no reversible change into a hydrate phase | – | unremarkable hygroscopic behaviour | – | takes up a certain amount of water continuously over the whole range of relative humidities | no phase change
